Experiments:
[1] = biological target: T1, Androgen receptor (Homo sapiens, UniProt P10275)
T1 sequence (P10275 whole entry): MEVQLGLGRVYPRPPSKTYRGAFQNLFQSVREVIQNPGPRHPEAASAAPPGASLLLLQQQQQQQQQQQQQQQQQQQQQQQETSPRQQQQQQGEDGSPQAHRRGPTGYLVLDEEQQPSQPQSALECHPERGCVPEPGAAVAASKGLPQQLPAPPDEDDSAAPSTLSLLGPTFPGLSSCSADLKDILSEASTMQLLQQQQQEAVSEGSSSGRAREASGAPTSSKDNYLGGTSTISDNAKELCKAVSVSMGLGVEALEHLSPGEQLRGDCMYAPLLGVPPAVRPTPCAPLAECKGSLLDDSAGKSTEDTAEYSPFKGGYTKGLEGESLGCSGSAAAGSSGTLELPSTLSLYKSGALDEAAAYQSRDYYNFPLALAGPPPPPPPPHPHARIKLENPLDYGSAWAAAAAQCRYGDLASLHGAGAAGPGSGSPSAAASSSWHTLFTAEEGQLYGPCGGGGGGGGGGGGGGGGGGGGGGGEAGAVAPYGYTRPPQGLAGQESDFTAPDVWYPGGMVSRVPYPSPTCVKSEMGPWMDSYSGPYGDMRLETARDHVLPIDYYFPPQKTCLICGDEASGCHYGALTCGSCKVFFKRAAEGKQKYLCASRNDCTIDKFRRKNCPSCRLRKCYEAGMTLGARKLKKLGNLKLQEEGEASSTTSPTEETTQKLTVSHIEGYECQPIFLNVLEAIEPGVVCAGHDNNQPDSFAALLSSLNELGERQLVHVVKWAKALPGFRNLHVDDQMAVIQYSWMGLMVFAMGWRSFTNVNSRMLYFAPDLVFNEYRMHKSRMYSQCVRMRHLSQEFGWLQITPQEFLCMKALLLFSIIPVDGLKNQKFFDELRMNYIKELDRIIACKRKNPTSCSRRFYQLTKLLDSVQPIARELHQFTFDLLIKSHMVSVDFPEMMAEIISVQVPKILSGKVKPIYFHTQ
Description: Antagonist activity at human AR

[2] = biological target: T1, Androgen receptor; remark: listed apart in the source
Description: Binding affinity to human AR

[3] = biological target: T1, Androgen receptor; remark: listed apart in the source
Description: Agonist activity at human AR

O=c1cc(C(F)(F)F)c2cc(N(Cc3ccccc3)CC(F)(F)F)ccc2[nH]1
IC50 [1]: > 10000 nM
Ki [2]: 79 nM
EC50 [3]: 27 nM

From ChEMBL document CHEMBL1147033, “Novel selective androgen receptor modulators: SAR studies on 6-bisalkylamino-2-quinolinones” (Bioorg Med Chem Lett, 2007)
